≈ marks a conversion by molar mass, not a printed value.

Series [1] in a line: Octanol-water partition coefficient of zotarolimus. The series is classed as physicochemical. From the text: In one embodiment, the drug is zotarolimus (Formula 1) ([…], molecular weight=966.5 g/mol), a tetrazole-containing macrocyclic immunosuppressant. […] The mechanism of action of zotarolimus is binding to FKBP12, leading to the formation of a trimeric complex with the protein kinase mTOR (mammalian target of rapamycin) thereby inhibiting its activity. Inhibition of mTOR results in the inhibition of protein phosphorylation events associated with translation of mRNA and cell cycle control.

A short description of another series: physchem. The series is classed as physicochemical. From the text:
The hydrophobicity of zotarolimus enhances its absorption across the cellular membrane leading to inhibition of neointimal proliferation of the target tissues.

The next series deals with Monocytic U937 cells. Put plainly: Monocyte adhesion to polymer coated wells (calcein uptake). It is filed as cell-based.

Method for Monocytic U937 cells: Monocytic U937 cells were purchased from ATCC Cell Biology Collection and maintained in culture according to vendor recommendations. U937 cells were seeded at 1×10^5/well onto polymer coated 96 well plates. The cells were stimulated with lipopolysaccharide (LPS) (100 ng/mL) and phorbol-12-myristate-13-acetate (PMA) (100 ng/mL) to induce differentiation and inflammatory activation. […] Adhesion of U937 cells to the polymer scaffold was assessed by calcein uptake as detailed in the following protocol. U937 cells were fluorescently labeled by incubation with calcein (1 mg/mL) for 30 minutes. Calcein is a fluorescent dye hydrolyzed by esterases in viable cells. The percent uptake of calcein is directly proportional to the number of viable cells in the well. The percent of cell adhesion was determined by reading the fluorescent measurements prior to and after gentle PBS washing of the adherent monocytes from the polymer coated plates. […] To calculate the relative percent adhesion, the ratio between the fluorescent measurement prior to and after gentle PBS washing of the adherent monocytes from the polymer coated plates was first determined. […]
In order to evaluate, in vitro, the polymers potential to elicit an inflammatory response, the adhesion of activated monocytes to the components of various polymers were measured, individually and in combination (C10, C19, and C10/C19).

In the case of `CO[C@H]1C[C@@H]2CC[C@@H](C)[C@@](O)(O2)C(=O)C(=O)N2CCCC[C@H]2C(=O)O[C@H]([C@H](C)C[C@@H]2CC[C@H](n3cnnn3)[C@H](OC)C2)CC(=O)[C@H](C)/C=C(\C)[C@@H](O)[C@@H](OC)C(=O)[C@H](C)C[C@H](C)/C=C/C=C/C=C/1C` [zotarolimus], the octanol-water partition coefficient in series [1] (pH 6.5) and in series [1] (pH 7.4) was more than 4.5 each time. For the same molecule, the solubility amounted to 0.47 µg/mL (≈ 0.486 µM) in the series “physchem” (pH 6.5, aqueous buffer) and 0.53 µg/mL (≈ 0.549 µM) in the series “physchem” (pH 7.4, aqueous buffer).

For Poly(butyl methacrylate) [PBMA], in the series with Monocytic U937 cells, the “monocyte adherence, fold induction over non-stimulated, negative control cells” value is 12.6 fold.
